Measurements as given in patent US12600727B2, “Treatment of infections of toxoplasma gondii and closely related parasites” (WASHINGTON UNIVERSITY, priority 2018, dated 2026).
Like-named read-outs stand apart in the source and are kept apart here.

Columns and labels:
Format in all cases: cell-based
[1] = test system: Neospora caninum parasites (NC-1 strain); assay: N. caninum (NC-1, lac-Z) growth inhibition in HFF, β-Gal assay; settings: N. caninum NC-1 lac-Z, 72 h, 10-point dose response 5 μM-0.01 μM, average of three biological replicates, read-out: EC50
Description: Neospora caninum parasites (NC-1 strain) expressing a lac-Z transgene (1) were serially passaged as tachyzoites in human foreskin fibroblasts cultured in DMEM supplemented with 10% fetal bovine serum (FBS), glutamine (10 mM) and gentamycin (10 μg/mL). Mature cultures were scraped, syringe passed using a 25 g needle to release parasites, filtered through a 3 micron polycarbonate filter to remove host cell debris and counted prior to each assay. All cultures were maintained in a 37° C. incubator with 5% CO2 and were verified mycoplasma free using the e-Myco plus Mycoplasma PCR detection kit (Boca Scientific).
Compounds were prepared as 10 mM stock in 100% DMSO. Pyrimethamine (positive control) and DMSO were included as controls in all plates and all replicates. The EC50 values were determined using a 10-point dose response curve using a 2-fold dilution series from 5.0 μM to 0.01 μM across the plate. Experiments were conducted in 96-well plates containing confluent HFF cells. Each assay plate was inoculated with 1×10^3 parasites (100 μL) containing 100 μL of 2× compound and incubated for 72 h prior to preparation for the j-Gal assay as described in Seeber, F. et al., Gene 169 (1996): 39-45, hereby incorporated by reference in its entirety and particularly in relation to the β-Gal assay protocol. Briefly, culture medium was replaced, wells rinsed with 200 μL of PBS followed by incubation with 50 μL of lysis buffer (100 mM HEPES, 1 mM MgSO4, 1% Triton X-100, 5 mM DTT) for 10 min at 50° C.
EC50 values determined from 10-point dose response curve (5 μM-0.01 μM) and presented as the average of three biological replicates. Linear regression and dose response inhibition (log ([compound]) vs normalized response-variable slope) were performed with Prism 8 for Mac (Graphpad Software, Inc.) and both the fits and data are shown in FIG. 1. Values represent the average of three biological replicates each with two internal replicates and are plotted as mean±S.E.M.

[2] = test system: Toxoplasma gondii strains expressing FLUC; assay: microbe, parasite or virus in culture
Description: The ability of bicyclic azetidines to inhibit different strains of T. gondii was tested using a series of firefly luciferase (FLUC)-tagged lines. […] A similar strategy was utilized to derive FLUC expressing lines from additional T. gondii strains MAS (type 4) and FOU (type 6).

[3] = test system: Toxoplasma gondii tachyzoites (ME49-FLUC, type 2); assay: T. gondii ME49-FLUC tachyzoite growth inhibition in HFF, luciferase assay; settings: T. gondii ME49-FLUC (type 2) tachyzoites in HFF
Description: Toxoplasma gondii tachyzoites (ME49-FLUC, type 2) (27) were serially passaged in human foreskin fibroblasts (HFF) cultured in complete DMEM medium (DMEM supplemented with 10% fetal bovine serum (FBS), glutamine (10 mM) and gentamycin (10 μg/mL)). For each assay described, infected monolayers were scraped, needle passed (23 ga), and parasites were separated from host cell debris using a three (3) micron pore polycarbonate filter. HeLa cells were cultured in MEM media that contained 10% FBS, 4 mM L-glutamine and 10 mM HEPES solution. Cell culture and assays were conducted using a 37° C. incubator with 5% CO2. Cell cultures were negative for mycoplasma, as determined using the e-Myco plus kit (Intron Biotechnology).
White, clear bottom 96-well assay plates were set up as described above with the following modifications. Only the inner 60 wells were used for the assay in order to reduce variability that results from evaporation during incubation. Dilution of compound stock is as described above, with all wells containing a final concentration of 0.1% DMSO. DMSO (vehicle control) and pyrimethamine (2.5 μM, positive control) were included in the outside wells of all plates as controls. Liquid handling (serial dilutions, compound dilutions, cell feeding, plate-to-plate transfers, etc.) utilized a Dual Pod Biomek FX. Luciferase assays were performed using the integrated and automated platform (Beckman Coulter). The SAMI EX software was used to design and execute the screening assay and enabled efficient and uniform assay execution across all the assay plates.

## COc1ccc(NC(=O)N2CCCCN3[C@H](CN(C)C)[C@H](c4ccc(C#Cc5ccccc5)cc4)[C@@H]3C2)cc1 [Compound 15, (8R,9S,10S)-10-((dimethylamino)methyl)-N-(4-methoxyphenyl)-9-(4-(phenylethynyl)phenyl)-1,6-diazabicyclo[6.2.0]decane-6-carboxamide]
[1]
  EC50: 250 nM
[2]; genotype 4, read-out: Average EC50 ± S.D.
  EC50: 41.9 nM
[2]; genotype 5, read-out: Average EC50 ± S.D.
  EC50: 26.9 nM
[2]; genotype 6, read-out: Average EC50 ± S.D.
  EC50: 45.1 nM
[2]; strain ME49, genotype 2, three or more independent titrations, read-out: Average EC50 ± S.D.
  EC50: 49.4 nM
[2]; strain VAND, genotype 10, three or more independent titrations, read-out: Average EC50 ± S.D.
  EC50: 27.9 nM
[3]
  EC50: 22.6 nM
